Experimental data reported in patent publication US20080299239A1, “Inhibitor of Glucose Absorption and Method for Producing the Same” (NICHIREI FOODS INC., priority 2003, published 2008).

System: Caco-2 cells
Experiment: Test of glucose uptake by cultured Caco-2 cells derived from human intestinal tract
Type: cell-based
Conditions: 250 μg/ml, 15 min preincubation, 10 min incubation, differentiated Caco-2 cells; for glucose transportation (3H-labeled glucose uptake): FIG. 1, relative to control; for 3-O-methyl glucose transportation (3H-labeled uptake): FIG. 2, relative to control
Experimental: Cultured Caco-2 cells derived from human intestinal tracts were monolayer-cultured on a plate for about 10 days and then differentiated. A DMEM medium containing 10% fetal calf serum was used. Pigment 1 and pigment 2 (250 μg/ml each) were added to the differentiated Caco-2 cells, the resultants were preincubated for 15 minutes, and ^3H-labeled glucose or 3-O-methyl glucose was then added thereto, followed by incubation for 10 minutes. ^3H incorporated into the cells was analyzed to determine the amount of glucose or methyl glucose transported.

Compound | glucose transportation (3H-labeled glucose uptake) | 3-O-methyl glucose transportation (3H-labeled uptake)
C[C@@H]1O[C@@H](Oc2cc3c(O)cc(O)cc3[o+]c2-c2ccc(O)c(O)c2)[C@H](O)[C@H](O)[C@H]1O.[Cl-] [pigment 1, cyanidin-3-rhamnoside] | specifically inhibited | specifically inhibited
CC1O[C@@H](Oc2cc3c(O)cc(O)cc3[o+]c2-c2ccc(O)cc2)[C@@H](O)C(O)[C@H]1O (stereo partly shown) [pigment 2, pelargonidin-3-rhamnoside] | specifically inhibited | specifically inhibited
